Legend:
[1] = system: Human coronavirus 229E (HCoV-229E); test: microbe, parasite or virus in culture; format: cell-based
[2] = system: Enterovirus 71; test: CPE assay, RD cells; format: cell-based; conditions: Enterovirus 71 [RD]
[3] = system: Rhinovirus A2; test: CPE assay, H1 HeLa cells; format: cell-based
[4] = system: Rhinovirus 14; test: CPE assay, H1 HeLa cells; format: cell-based; conditions: Rhinovirus 14 [H1 HeLa]
[5] = system: Rhinovirus 16; test: CPE assay, H1 HeLa cells; format: cell-based; conditions: Rhinovirus 16 [H1 HeLa]
[6] = system: Dengue 1 virus (Western Pacific); test: microbe, parasite or virus in culture; format: cell-based; conditions: Dengue 1 virus (Western Pacific) [Huh-7]
[7] = system: Dengue 3 virus (VN32); test: microbe, parasite or virus in culture; format: cell-based; conditions: Dengue 3 virus (VN32) [Huh-7]
[8] = system: Dengue 4 virus (MY01); test: microbe, parasite or virus in culture; format: cell-based; conditions: Dengue 4 virus (MY01) [Huh-7]
[9] = system: Dengue 4 virus (Dakar_HD_34460); test: microbe, parasite or virus in culture; format: cell-based
[10] = system: Zika virus (Dakar); test: NanoLuc reporter virus infection assay, Huh-7; format: cell-based; conditions: Zika virus (Dakar) [Huh-7]
[11] = system: Yellow fever virus (YFS11); test: microbe, parasite or virus in culture; format: cell-based
[12] = system: Yellow fever virus (17D); test: microbe, parasite or virus in culture; format: cell-based
[13] = system: Ebola virus (Makona); test: microbe, parasite or virus in culture; format: cell-based
[14] = system: Ebola virus (Mayinga); test: microbe, parasite or virus in culture; format: cell-based
[15] = system: Ebola virus (Kikwit); test: microbe, parasite or virus in culture; format: cell-based
[16] = system: Sudan virus (Gulu); test: microbe, parasite or virus in culture; format: cell-based
[17] = system: Sudan virus (Boneface); test: microbe, parasite or virus in culture; format: cell-based
[18] = system: Marburg (Musoke); test: microbe, parasite or virus in culture; format: cell-based, Marburg virus
[19] = system: HCV GT2a replicon; test: HCV subgenomic replicon Renilla luciferase assay, Huh-7-lunet; format: cell-based, hepatitis C virus; conditions: Hepatitis C (2a) [Huh-7-lunet]
[20] = system: Influenza A (A/California/07/2009); test: CPE assay, MDCK cells; format: cell-based; conditions: Influenza A virus; Influenza A (A/California/07/2009) [MDCK]; read-out: Antiviral activity EC50
[21] = system: Influenza B (B/Brisbane/60/2008); test: CPE assay, MDCK cells; format: cell-based; conditions: Influenza B virus; Influenza B (B/Brisbane/60/2008) [MDCK]; read-out: Antiviral activity EC50
[22] = system: hepatitis B virus (HBV; AD38 strain); test: microbe, parasite or virus in culture; format: cell-based; conditions: Hepatocyte, read-out: Antiviral activity EC50
[23] = system: HDV genotype 1 virus; test: HDV infection assay (HDAg immunofluorescence), Huh7-NTCP cells; format: cell-based, hepatitis delta virus; conditions: Hepatitis D (Huh7-NTCP)
[24] = system: hepatitis E virus (GT3-Kernow C1 p6/Luciferase replicon); test: HEV replicon Gaussia luciferase assay, Huh-7; format: cell-based; conditions: Hepatitis E GT3 Kernow C1 p6/Luc replicon [Huh-7]
[25] = system: DENV; test: microbe, parasite or virus in culture; format: cell-based; conditions: Dengue virus, Huh-7, read-out: EC50 range against DENV
[26] = system: SUDV Boniface; test: microbe, parasite or virus in culture; format: cell-based, Sudan virus; conditions: Sudan ebolavirus, HeLa; n = 9; read-out: RDV activity against SUDV EC50
[27] = system: Huh-7 cells; conditions: human
[28] = system: Ebola virus; conditions: read-out: Previously reported activity EC50; cited from earlier work
[29] = in vitro; conditions: human
[30] = Cytotoxicity in HBV assay; conditions: human, HepG2-NTCP cells (clone HY12), HBV-infected
[31] = Cytotoxicity by nuclei count in HDV assay; conditions: human, Huh7-NTCP cells (HDV assay)
[32] = Compound cytotoxicity by MTS dye reduction; conditions: human, RD cells
[33] = Compound cytotoxicity by MTS dye reduction; conditions: human, H1 HeLa cells
[34] = system: H1 HeLa cells; test: Compound cytotoxicity by MTS dye reduction; conditions: H1 HeLa
[35] = Cell toxicity, CellTiter-Glo, in HBV assay; conditions: human, PHH cells (HBV assay)
[36] = Cytotoxicity, CellTiter-Glo, 72 h (OC43 protocol); conditions: human, Huh-7 cells
[37] = Multiplex cytotoxicity (calcein AM) in HCV replicon assay; conditions: human, Huh-7-lunet HCV genotype 2a replicon cells
[38] = n = 1, read-out: Antiviral activity EC50
[39] = Zaire ebolavirus, HeLa, read-out: Antiviral activity EC50
[40] = Sudan ebolavirus, HeLa, n = 1, read-out: Antiviral activity EC50

CCC(CC)COC(=O)[C@H](C)N[P@](=O)(OC[C@H]1O[C@@](C#N)(c2ccc3c(N)ncnn23)[C@H](O)[C@@H]1O)Oc1ccccc1 [RDV, Remdesivir]
Selectivity index (SI) = CC50/EC50 [1]: > 538
EC50 ([1]; Human coronavirus 229E, H1-HeLa, read-out: Antiviral activity EC50): 93 ± 53 nM
Selectivity index (SI) = CC50/EC50 [2]: 24
EC50 ([2]; Enterovirus A, n = 1, read-out: Antiviral activity EC50): 140 nM
Selectivity index (SI) = CC50/EC50 [3]: > 22
EC50 ([3]; Rhinovirus A, n = 1, read-out: Antiviral activity EC50): 450 nM
EC50 ([4]; Enterovirus, read-out: Antiviral activity EC50): 385 ± 318 nM
Selectivity index (SI) = CC50/EC50 [4]: > 26
EC50 ([5]; Enterovirus, n = 1, read-out: Antiviral activity EC50): 750 nM
Selectivity index (SI) = CC50/EC50 [5]: > 13
Selectivity index (SI) = CC50/EC50 [6]: 159
EC50 [6, 38]: 210 nM
Selectivity index (SI) = CC50/EC50 [7]: 278
EC50 [7, 38]: 120 nM
Selectivity index (SI) = CC50/EC50 [8]: 186
EC50 [8, 38]: 180 nM
Selectivity index (SI) = CC50/EC50 [9]: 176
EC50 ([9]; Dengue virus, Huh-7, read-out: Antiviral activity EC50): 190 ± 50 nM
Selectivity index (SI) = CC50/EC50 [10]: 90
EC50 [10, 38]: 370 nM
Selectivity index (SI) = CC50/EC50 [11]: 32
EC50 ([11]; Yellow fever virus, Huh-7, n = 1, read-out: Antiviral activity EC50): 1060 nM
Selectivity index (SI) = CC50/EC50 [12]: 186
EC50 ([12]; Yellow fever virus, Huh-7, read-out: Antiviral activity EC50): 180 ± 30 nM
Selectivity index (SI) = CC50/EC50 [13]: > 32
EC50 [13, 39]: 78 ± 4 nM
Selectivity index (SI) = CC50/EC50 [14]: > 18
EC50 [14, 39]: 136 ± 17 nM
Selectivity index (SI) = CC50/EC50 [15]: > 36
EC50 [15, 39]: 70 ± 8 nM
Selectivity index (SI) = CC50/EC50 [16]: > 192
EC50 [16, 40]: 60 nM
Selectivity index (SI) = CC50/EC50 [17]: > 21
EC50 [17, 40]: 120 nM
Selectivity index (SI) = CC50/EC50 [18]: > 63
EC50 ([18]; Filoviridae, HeLa, read-out: Antiviral activity EC50): 40 ± 4 nM
Selectivity index (SI) = CC50/EC50 [19]: 236
EC50 ([19]; Hepatitis C virus, GT2A, read-out: Antiviral activity EC50): 72 ± 13 nM
EC50 [20]: > 50000 nM
EC50 [21]: > 50000 nM
EC50 [22]: > 1000 nM
Selectivity index (SI) [23]: Low (When minimal RDV antiviral activity is observed for a particular virus, low SI is indicated)
EC50 ([23]; Hepatitis delta virus, read-out: Antiviral activity EC50): > 5000 nM
Selectivity index (SI) [24]: Low (When minimal RDV antiviral activity is observed for a particular virus, low SI is indicated)
EC50 ([24]; Hepatitis E virus, read-out: Antiviral activity EC50): > 2070 nM
EC50 [25]: 120 to 230 nM
EC50 [26]: 308 nM
concentration at which cytotoxicity was observed [27]: approximately 4 µM
EC50 [28]: 3 to 140 nM
CC50 at 48 h [29]: > 2500 nM
CC50 ([29]; RDV CC50 (SUDV assay)): > 2500 nM
CC50 at 5 days [30]: 7400 nM
CC50 [31]: 8000 to 10000 nM
CC50 ([32]; listed as Enterovirus 68D): 2820 nM
CC50 ([32]; listed as Enterovirus 71): 3310 nM
CC50 [33]: > 10000 nM
CC50 ([34]; listed as Rhinovirus 14): > 10000 nM
CC50 ([34]; listed as Rhinovirus 16): > 10000 nM
CC50 [35]: > 1000 nM
CC50 at 72 h [36]: 18900 ± 1800 nM
CC50 [37]: 17000 ± 3000 nM
